Patent publication US20230364051A1, “FORMULATIONS AND METHODS FOR IMPROVING AVIAN HEALTH” (CORNELL UNIVERSITY, priority 2022, published 2023)
Marks after values point to notes of the source that are not given here.

Legend:
[1] = tested on: gut bacterial populations; conditions: mice fed a high fat diet; cited from earlier work
[2] = maternal intake perinatally and throughout pregnancy, mice; cited from earlier work
[3] = Pectoral muscle glycogen analysis after intraamniotic administration; format: in vivo, Gallus gallus; conditions: for Average Glycogen: day 17, pectoral muscle at hatch
Experimental: (§1) Cornish-cross fertile broiler eggs (Gallus gallus, n = 39) were obtained from a commercial hatchery (Moyer’s chicks, Quakertown, PA, USA). The eggs were incubated under optimal conditions at the Cornell University Animal Science Poultry Farm Incubator [18]. All animal protocols were approved by Cornell University Institutional Animal Care and Use committee (IACUC #2020-0077). At day 17 of embryonic incubation, eggs containing viable embryos were weighed and divided into 5 groups, with all treatment groups assigned eggs of similar weight frequency distribution. Each group was then injected with the specific solution (1 mL per egg) with a 21-gauge needle into the amniotic fluid. Treatments in powder form were separately diluted in DI H2O. Two treatment groups (1.25, 2.5 wt. %), two controls (H2O and non-injected), and a positive control (5 wt. % inulin) were administered. After injection, the injection holes were sealed with cellophane tape and the eggs were placed in hatching baskets such that each treatment was equally represented at each incubator location. Immediately upon hatch (day 21), blood was taken for hemoglobin determination and all chicks were then euthanized by CO2 exposure. The small intestine, pectoral muscle, cecum, and liver were collected, immediately frozen in liquid nitrogen, and then stored in a -80° C. freezer until analysis.
Glycogen analysis was obtained from pectoralis muscle as previously described. Briefly, the frozen pectoral muscle samples were homogenized in 8 wt. % perchloric acid. Samples were then centrifuged at 12,000 × g for 15 minutes. The supernatant was removed, and 1.0 mL of petroleum ether was added to each tube. After mixing, the petroleum ether fraction was removed and samples from the bottom layer were transferred to a 96-well plate containing 300 µL of color reagent. All samples were read at a wavelength of 450 nm in an ELISA reader and the amount of glycogen was calculated according to a standard curve. The amount of glycogen present in pectoral sample was determined by multiplying the weight of the tissue by the amount of glycogen per 1 g of wet tissue.

[4] = tested on: duodenum; assay: Duodenal tissue morphology examination (villi, crypts, goblet cells, Paneth cells); format: in vivo, Gallus gallus; conditions: for # Crypt Paneth Cells / Crypt Depth / Crypt Goblet Cell Diameter / Crypt Goblet Cell Number Acidic / Crypt Goblet Cell Number Mixture / Crypt Goblet Cell Number Neutral / Crypt Goblet Cell Number Total / Crypt Paneth cell Diameter / Villi Goblet Cell Diameter / Villi Goblet Cell Number Acidic / Villi Goblet Cell Number Mixture / Villi Goblet Cell Number Neutral / Villi Goblet Cell Number Total / Villus Height / Villus Surface Area / Villus Width: day 17, duodenum at hatch
Experimental: as §1, with “All animal protocols were approved by Cornell University Institutional Animal Care and Use committee (IACUC #2020-0077). At day 17 of embryonic incubation, eggs containing viable embryos were weighed and divided into 5 groups, with all treatment groups assigned eggs of similar weight frequency distribution.” left out, “Two treatment groups (1.25, 2.5 wt. %), two controls (H2O and non-injected), and a positive control (5 wt. % inulin) were administered.” left out
Intestinal morphology examination was performed as was previously described. Duodenum samples were fixed in fresh 4 wt. % (v/v) buffered formaldehyde, dehydrated, cleared, and embedded in paraffin. Serial sections were cut at 5 µm and placed on glass slides. Intestinal sections were deparaffinized in xylene, rehydrated in a graded alcohol series, stained with Alcian Blue/Periodic acid-Schiff, and examined by light microscopy. The following variables were measured in the intestine: villus height, villus width, crypt depth, Paneth cell number per crypt, Paneth cell width, goblet cell number, goblet cell diameter, types of goblet cells in the villi epithelium, and types of goblet cells within the crypts. Measurements in each segment were performed with a light microscope using CellSens Standard software (Olympus, Waltham, MA, USA).

[5] = tested on: cecal microbiota pathways; assay: Cecal 16S rRNA gene sequencing, LEfSe analysis; format: in vivo, Gallus gallus; conditions: genistein treatment; cecal contents
Experimental: as §1, with “analysis. […]” for “analysis.”

[6] = tested on: hepcidin; conditions: human hepatocytes; cited from earlier work
[7] = 1.25 wt. % genistein intraamniotic
[8] = 2.5 wt. % genistein intraamniotic
[9] = 2.5 wt. % genistein vs no injection and H2O, p < 0.05
[10] = 2.5 wt. % vs 1.25 wt. % genistein, p < 0.05
[11] = both genistein treatment groups vs control groups, p < 0.05
[12] = genistein treatment groups (1.25, 2.5 wt. %) vs no injection, H2O and inulin, p < 0.05

SMILES: O=c1c(-c2ccc(O)cc2)coc2cc(O)cc(O)c12 [Genistein, genistein]
- Gut bacterial populations associated with decreasing levels of lipopolysaccharide [1]: increased
- Harmful effects of a high-fat fed diet in dams and offspring [2]: mitigated
- Average Glycogen [3, 7]: 0.008 ± 0.003 ^ab mg/g
- Average Glycogen [3, 8]: 0.015 ± 0.004 ^a mg/g
- Average glycogen vs control ([3]; genistein treated groups vs no injection, p > 0.05): no significant difference
- # Crypt Paneth Cells [4, 7]: 2.92 ± 0.10 ^b
- Crypt Depth [4, 7]: 26.36 ± 0.46 ^c µm
- Crypt Goblet Cell Diameter [4, 7]: 2.89 ± 0.02 ^a µm
- Crypt Goblet Cell Number Acidic [4, 7]: 8.51 ± 0.14 ^a Unit
- Crypt Goblet Cell Number Mixture [4, 7]: 0.74 ± 0.06 ^d Unit
- Crypt Goblet Cell Number Neutral [4, 7]: 0.00 ± 0.00 ^a Unit
- Crypt Goblet Cell Number Total [4, 7]: 9.25 ± 0.14 ^ab Unit
- Crypt Paneth cell Diameter [4, 7]: 1.78 ± 0.04 ^a µm
- Villi Goblet Cell Diameter [4, 7]: 3.41 ± 0.03 ^b µm
- Villi Goblet Cell Number Acidic [4, 7]: 23.49 ± 0.67 ^a Unit
- Villi Goblet Cell Number Mixture [4, 7]: 1.69 ± 0.13 ^e Unit
- Villi Goblet Cell Number Neutral [4, 7]: 0.09 ± 0.03 ^b Unit
- Villi Goblet Cell Number Total [4, 7]: 25.26 ± 0.67 ^a Unit
- Villus Height [4, 7]: 204.18 ± 3.73 ^b µm
- Villus Surface Area [4, 7]: 146.97 ± 4.55 ^c mm2
- Villus Width [4, 7]: 44.51 ± 0.86 ^c µm
- Crypt goblet cell diameter vs controls ([4]; 1.25 wt. % genistein vs all control groups, p < 0.05): significantly greater
- Crypt Paneth cell diameter vs controls ([4]; 1.25 wt. % genistein vs no injection and 5 wt. % inulin, p < 0.05): significantly (p < 0.05) higher
- Villus width vs controls ([4]; 1.25 wt. % genistein vs no injection and H2O, p < 0.05): significantly (p < 0.05) greater
- # Crypt Paneth Cells [4, 8]: 3.24 ± 0.11 ^a
- Crypt Depth [4, 8]: 23.65 ± 0.46 ^d µm
- Crypt Goblet Cell Diameter [4, 8]: 2.63 ± 0.02 ^b µm
- Crypt Goblet Cell Number Acidic [4, 8]: 8.81 ± 0.19 ^a Unit
- Crypt Goblet Cell Number Mixture [4, 8]: 0.88 ± 0.06 ^d Unit
- Crypt Goblet Cell Number Neutral [4, 8]: 0.00 ± 0.00 ^a Unit
- Crypt Goblet Cell Number Total [4, 8]: 9.68 ± 0.19 ^a Unit
- Crypt Paneth cell Diameter [4, 8]: 1.65 ± 0.03 ^b µm
- Villi Goblet Cell Diameter [4, 8]: 3.50 ± 0.03 ^a µm
- Villi Goblet Cell Number Acidic [4, 8]: 22.01 ± 0.51 ^b Unit
- Villi Goblet Cell Number Mixture [4, 8]: 2.70 ± 0.16 ^d Unit
- Villi Goblet Cell Number Neutral [4, 8]: 0.19 ± 0.04 ^a Unit
- Villi Goblet Cell Number Total [4, 8]: 24.89 ± 0.54 ^a Unit
- Villus Height [4, 8]: 238.22 ± 3.17 ^a µm
- Villus Surface Area [4, 8]: 184.13 ± 4.66 ^b mm2
- Villus Width [4, 8]: 48.27 ± 0.87 ^b µm
- Crypt goblet cell diameter vs inulin ([4]; 2.5 wt. % genistein vs 5 wt. % inulin): significantly higher
- Villus height vs controls [4, 9]: significantly increased
- Villus surface area vs controls [4, 9]: significantly increased
- Villus width vs controls [4, 9]: significantly increased
- Villus height, dose comparison [4, 10]: significantly higher
- Villus surface area, dose comparison [4, 10]: significantly higher
- Villus width, dose comparison [4, 10]: significantly higher
- Acidic villi goblet cell count vs controls [4, 11]: significantly higher
- Neutral villi goblet cell count vs controls [4, 11]: significantly higher
- Mixture villi goblet cells vs controls ([4]; both genistein treatment groups vs controls, p < 0.05): significantly reduced
- Acidic crypt goblet cell count vs controls ([4]; both genistein treatment groups vs no injection, H2O and inulin, p < 0.05): significantly higher
- Total crypt goblet cell count vs controls ([4]; genistein exposure vs no injection and H2O, p < 0.05): significantly higher
- Mixed crypt goblet cells vs controls ([4]; genistein exposure vs no injection, H2O and inulin, p < 0.05): significantly reduced
- Total number of villi goblet cells vs controls [4, 12]: significantly higher
- Villi goblet cell diameter vs controls [4, 12]: significantly higher
- Crypt depth vs control ([4]; genistein treatment groups vs H2O-injection group, p < 0.05): significantly lower
- Number of crypt Paneth cells vs controls ([4]; genistein treatment groups vs no injection, H2O and inulin, p < 0.05): significantly greater
- Pathways associated with de novo synthesis of vitamin B12 (LEfSe) [5]: enriched
- Hepcidin transcription levels and promoter activity [6]: increased
